# Assay results reported in publication PMC6208908, “Field template-based design and biological evaluation of new sphingosine kinase 1 inhibitors” (Breast Cancer Research and Treatment, 2018).
# How the values were obtained:
# [1] = molecular target: T1, endogenous SK1 in MDA-MB-231 cells (Homo sapiens, UniProt Q9NYA1); assay: SK1 activity in lysates of treated MDA-MB-231 cells; assay type: cell-based; settings: 6 h
# T1 construct: We treated MDA-MB-231 cells with 1 µM of compounds SK-A – SK-F and SKI-II as the positive control for 6 h; endogenous in cells; host or cells: MDA-MB-231
# T1 sequence (Q9NYA1 whole entry): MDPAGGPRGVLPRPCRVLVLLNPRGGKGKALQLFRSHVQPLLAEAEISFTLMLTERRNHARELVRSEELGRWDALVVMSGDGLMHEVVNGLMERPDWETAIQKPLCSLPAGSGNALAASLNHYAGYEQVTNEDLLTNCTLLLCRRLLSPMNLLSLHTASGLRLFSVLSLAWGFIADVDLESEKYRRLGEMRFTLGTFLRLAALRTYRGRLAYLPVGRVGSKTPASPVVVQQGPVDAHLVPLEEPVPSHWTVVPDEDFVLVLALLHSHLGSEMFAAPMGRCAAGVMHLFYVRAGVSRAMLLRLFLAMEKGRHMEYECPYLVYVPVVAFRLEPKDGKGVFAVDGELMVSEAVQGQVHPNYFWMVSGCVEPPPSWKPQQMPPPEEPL
# Protocol: After incubation, cells were washed with ice-cold phosphate-buffered saline (PBS) and harvested.
# SK assay was performed using radiolabeling as previously described, in conditions favouring SK1 or SK2 activity as required.
# Fig. 2 Inhibition of sphingosine kinase 1 in cell-free extract and in vitro. a 1 µM of compounds SK-A to SK-F and SKI-II (commercial inhibitor of SK used as a positive control) were incubated in the presence of recombinant SK1 extract (in excess), 1 µM of ATP, and 1 µM exogenous sphingosine for 1 h. b MDA-MB-231 cells were incubated with 1 µM of compounds SK-A to SK-F and SKI-II for 6 h. SK1 activity was measured as described in materials and methods. Columns, means of three independent experiments normalised to vehicle; bars, SEM. (ns, non-significant; *p < 0.05; **p < 0.01)
# Reportedly, among human tumour cell lines, the breast cancer cell line MDA-MB-231 expresses high levels of SK activity. We treated MDA-MB-231 cells with 1 µM of compounds SK-A – SK-F and SKI-II as the positive control for 6 h and analysed SK1 activity in the cell lysates using SK1 activity assay.
# [2] = test system: MDA-MB-231 cells; assay: MTT cell viability / proliferation assay; assay type: cell-based, human; settings: for IC50: Homo sapiens
# Protocol: Cellular viability was measured using the 3-(4,5-dimethylthiazol-2-yl)-2,5-diphenyltetrazolium bromide (MTT; 5 mg/ml) colorimetric assay as already described.
# Fig. 4 Effect of compounds SK-A to SK-F on breast cancer cell viability. MDA-MB-231 cells were incubated with 1, 2, 5 and 10 µM of compounds SK-A to SK-F for up to 120 h. Cell proliferation was measured using MTT assay. Columns, means of three independent experiments normalised to control; bars, SEM. (*p < 0.05; **p < 0.01; ^§p < 0.001). IC50 levels for SK-F for 72, 96 and 120 h were 7, 4.5 and 3 µM, respectively
# [3] = test system: 4T1 breast cancer allografts; assay: 4T1 breast cancer allograft, tumour volume; assay type: in vivo, BALB/c nude mice; settings: 5 mg/kg each drug i.p. twice a week for 2 weeks; control 468 mm^3
# Protocol: Breast cancer allografts were established in 6–8-week-old BALB/c nude mice by injection of 10^6 4T1 cells into their mammary pad. Two weeks after implantation, mice were randomised into treatment groups (n = 6/group) and treated twice a week for 2 weeks with intraperitoneal injections of dimethyl sulfoxide (DMSO), 5 mg/kg DTX, 5 mg/kg SK-F, 5 mg/kg DTX + 5 mg/kg SK-F. One day after the last treatment, all mice were euthanized and blood was collected. Tumour long and short radii were measured using calipers and tumour volume (v) was calculated using the formula v = 4/3 πab^2 (a – long radius, b – short radius). Mice and individual organs were weighed and primary tumours were then processed for analysis of SK1 activity as described above. Full blood count and liver function test analysis was done in the Hammersmith hospital biochemical lab. […]
# (§1) Fig. 5 Effect of compound SK-F on breast tumour growth and SK1 activity. […] Two weeks after implantation, mice were randomised into treatment groups (n = 6/group) and treated twice a week for 2 weeks with intraperitoneal injections of: DMSO, 5 mg/kg DTX, 5 mg/kg SK-F, 5 mg/kg DTX + 5 mg/kg SK-F. a Tumour volume in the different treatment groups of 4T1 breast cancer implanted in mouse mammary fat pad. b SK1 activity in tumours was measured using radiolabelling. […]
# [4] = molecular target: T2, tumour SK1 (Mus musculus, UniProt Q8CI15); assay: SK1 activity in 4T1 allograft tumours; assay type: in vivo, BALB/c nude mice; settings: 5 mg/kg each drug i.p. twice a week for 2 weeks
# T2 construct: primary tumours were then processed for analysis of SK1 activity as described above; from tissue; host or cells: 4T1 breast tumour allografts from BALB/c nude mice
# T2 sequence (Q8CI15 whole entry): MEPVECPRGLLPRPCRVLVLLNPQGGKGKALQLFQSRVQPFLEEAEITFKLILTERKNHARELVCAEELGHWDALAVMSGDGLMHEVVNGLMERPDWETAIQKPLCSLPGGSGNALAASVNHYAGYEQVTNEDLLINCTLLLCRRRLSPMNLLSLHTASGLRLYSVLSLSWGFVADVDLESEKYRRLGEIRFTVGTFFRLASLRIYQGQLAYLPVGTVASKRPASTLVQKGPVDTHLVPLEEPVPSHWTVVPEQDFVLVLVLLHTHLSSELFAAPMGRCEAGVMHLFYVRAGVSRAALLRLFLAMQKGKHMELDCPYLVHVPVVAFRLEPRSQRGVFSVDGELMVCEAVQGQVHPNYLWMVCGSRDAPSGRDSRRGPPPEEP
# Protocol: (§2) Breast cancer allografts were established in 6–8-week-old BALB/c nude mice by injection of 10^6 4T1 cells into their mammary pad. Two weeks after implantation, mice were randomised into treatment groups (n = 6/group) and treated twice a week for 2 weeks with intraperitoneal injections of dimethyl sulfoxide (DMSO), 5 mg/kg DTX, 5 mg/kg SK-F, 5 mg/kg DTX + 5 mg/kg SK-F. One day after the last treatment, all mice were euthanized and blood was collected. Tumour long and short radii were measured using calipers and tumour volume (v) was calculated using the formula v = 4/3 πab^2 (a – long radius, b – short radius). Mice and individual organs were weighed and primary tumours were then processed for analysis of SK1 activity as described above. Full blood count and liver function test analysis was done in the Hammersmith hospital biochemical lab.
# as §1
# [5] = Liver function tests in treated mice; assay type: in vivo, BALB/c nude mice; settings: 5 mg/kg each drug i.p. twice a week for 2 weeks, compared with DTX
# Protocol: as §2
# Fig. 6 Liver function tests of mice treated with SK-F and docetaxel (DTX). Breast cancer allografts were established in BALB/c nude mice by injection of 4T1 cells into their mammary pad. Two weeks after implantation, mice were randomised into treatment groups (n = 6/group) and treated twice a week for two weeks with intraperitoneal injections of: DMSO, 5 mg/kg DTX, 5 mg/kg SK-F, 5 mg/kg DTX + 5 mg/kg SK-F. a Alanine transaminases (ALT). b Bilirubin. c Aspartate transaminase (AST). d Albumin. e Alkaline phosphatase (ALP). f Total protein. Columns, mean of n = 6 animals normalised to control; bars, SEM. (*p < 0.05; **p < 0.01)
# [6] = molecular target: T3, SK1 in 4T1 cells (Mus musculus, UniProt Q8CI15); assay: SK1 activity in 4T1 cells in vitro (Figure S10); assay type: cell-based, murine
# T3 construct: endogenous in cells; host or cells: 4T1
# T3 sequence (Q8CI15 whole entry): as above
smiles,measurement,setting,value
CCCCCCCCc1ccc(NC(=O)c2ccccc2)cc1 [SK-F],SK1 activity in cells versus vehicle,[1]; 1 µM,significantly decreased
same,inhibition at 1 µM,[1]; read-out: inhibition of SK1 activity in vitro,48.2%
same,effect on MDA-MB-231 cancer cell proliferation,"[2]; 1, 2, 5 and 10 µM, up to 120 h",highest effect
same,IC50,"[2]; MDA-MB-231, 72 h",7 µM
same,IC50,"[2]; MDA-MB-231, 96 h",4.5 µM
same,IC50,"[2]; MDA-MB-231, 120 h",3 µM
same,tumour volume at the end of the study,[3],371 mm^3
same,tumour SK1 activity,[4],significantly reduced
same,liver function test toxicity profile,[5],milder toxicity profile
same,SK1 activity in 4T1 cells,[6],significant inhibition
